Assay results reported in patent US10221163B2 (priority 2015, dated 2019).
Read-outs that look alike come from different tables or passages of the source.

Tests used:
[1] = tested on: Serratia marcescens expressing IMP-1 (CL5741); format: cell-based; settings: with imipenem 1 μg/ml; 95% inhibition of bacterial growth
Procedure, shortened: (§1)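 Colonies grown overnight on blood agar at 35° C were suspended in saline, diluted 1:100 into 1.1×CAMHB and dispensed. Imipenem was added to 1 μg/ml, then test compound. After 22 hours to 24 hours at 35° C, absorbance was recorded.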

[2] = tested on: Escherichia coli expressing NDM-1 (CLB30005, CLB30016); format: cell-based; settings: with imipenem 1 μg/ml; 95% inhibition of bacterial growth
Procedure, shortened: as §1

[3] = tested on: Klebsiella pneumoniae expressing VIM-1 (IHMA599644); format: cell-based; settings: with imipenem 1 μg/ml; 95% inhibition of bacterial growth
Procedure, shortened: as §1

[4] = tested on: Pseudomonas aeruginosa efflux+ (MB9798), IMP-1; format: cell-based; settings: concentration restoring susceptibility to imipenem at 2 μg/mL in the presence of a class A, C, D serine β-lactamase inhibitor closely related to relebactam
Procedure, shortened: (§2)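 Steps: add fixed imipenem and/or ceftazidime (usually CLSI breakpoint) and fixed AmpC-directed class A/C inhibitor to microbroth MIC wells; titrate MBL inhibitor; record concentration regaining susceptibility for each PAO1-derived strain; divide efflux+ by efflux− value.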

[5] = tested on: Pseudomonas aeruginosa efflux− (MB9799), IMP-1; format: cell-based; settings: concentration restoring susceptibility to imipenem at 2 μg/mL in the presence of a class A, C, D serine β-lactamase inhibitor closely related to relebactam
Procedure, shortened: as §2

[6] = tested on: Pseudomonas aeruginosa MB9798 vs MB9799; settings: ratio MITC95 PA_9798/MITC95 PA_9799
Procedure, shortened: as §2

[7] = molecular target: VIM-1 (Pseudomonas aeruginosa (strain ATCC 15692 / DSM 22644 / CIP 104116 / JCM 14847 / LMG 12228 / 1C / PRS 101 / PAO1), UniProt A0A0F7KYQ8); assay: biochemical; settings: CCF2-FA substrate, 30 pM enzyme, 2 hours at 25° C.
Procedure, shortened: (§3)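 Inhibitor was mixed with the metallo-β-lactamase and CCF2-FA. After 2 hours at 25° C, fluorescence of the coumarin–fluorescein cephalosporin substrate was read. IC50 was calculated with a 4-parameter fit.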

[8] = molecular target: IMP-1 (Serratia marcescens, UniProt P52699); assay: biochemical; format: biochemical; settings: fluorescence assay, CCF2-FA substrate, 2 pM enzyme, 2 hours at 25° C.; read-out: IMP-1 IC50
Procedure, shortened: as §3

[9] = molecular target: NDM-1 (Klebsiella pneumoniae, UniProt C7C422); assay: biochemical; format: biochemical; settings: fluorescence assay, CCF2-FA substrate, 1 pM enzyme, 2 hours at 25° C.; read-out: NDM-1 IC50
Procedure, shortened: as §3

[10] = fluorescence assay, read-out: VIM-1 IC50

Sequence of IMP-1 (P52699 whole entry, looked up, species assumed): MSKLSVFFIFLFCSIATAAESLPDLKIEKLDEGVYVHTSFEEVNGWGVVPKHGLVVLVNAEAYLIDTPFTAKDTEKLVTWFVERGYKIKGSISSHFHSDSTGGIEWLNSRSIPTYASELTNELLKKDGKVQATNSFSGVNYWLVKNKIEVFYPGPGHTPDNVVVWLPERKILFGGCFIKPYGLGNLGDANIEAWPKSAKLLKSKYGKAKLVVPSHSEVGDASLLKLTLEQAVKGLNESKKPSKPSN
Sequence of NDM-1 (C7C422 whole entry, looked up, species assumed): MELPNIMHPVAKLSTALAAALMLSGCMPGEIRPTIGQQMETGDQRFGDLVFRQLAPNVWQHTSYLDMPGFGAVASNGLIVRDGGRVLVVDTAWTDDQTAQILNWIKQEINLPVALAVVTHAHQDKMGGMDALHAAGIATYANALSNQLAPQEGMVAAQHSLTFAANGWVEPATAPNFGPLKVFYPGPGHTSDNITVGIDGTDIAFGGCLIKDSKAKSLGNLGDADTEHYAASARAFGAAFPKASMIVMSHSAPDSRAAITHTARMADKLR

| Compound | Serratia marcescens expressing IMP-1 (CL5741) MITC95 [1] [µM] | Escherichia coli expressing NDM-1 (CLB30016) MITC95 [2] [µM] | Klebsiella pneumoniae expressing VIM-1 (IHMA599644) MITC95 [3] [µM] | P. aeruginosa expressing IMP-1, efflux + (MB9798) MITC95 [4] [µM] | P. aeruginosa expressing IMP-1, efflux − (MB9799) MITC95 [5] [µM] | Efflux ratio [6] | IC50 [7, 10] [pM] | IC50 [8] [pM] | IC50 [9] [pM] | IC50 ([7]; VIM-1 IC50, fluorescence assay) [pM] |
| --- | --- | --- | --- | --- | --- | --- | --- | --- | --- | --- |
| Nc1nc2c(-c3ccc(S(=O)(=O)NCCC(N)C(F)(F)F)c(S(N)(=O)=O)c3-c3nnn[nH]3)cccc2s1 (stereo not drawn) [Example 49, 4-(2-amino-1,3-benzothiazol-4-yl)-N1-(3-amino-4,4,4-trifluorobutyl)-3-(1H-tetrazol-5-yl)benzene-1,2-disulfonamide] | 12.5 | 25 | 25 | 50 | 6.25 | 8.00 | 328 | 413 | 67.3 | – |
| Nc1nc2c(-c3ccc(S(=O)(=O)N[C@H]4CO[C@H]5[C@H]4OC[C@H]5O)c(S(N)(=O)=O)c3-c3nnn[nH]3)cccc2s1 [Example 50, 2-({[4-(2-amino-1,3-benzothiazol-4-yl)-2-sulfamoyl-3-(1H-tetrazol-5-yl)phenyl]sulfonyl}amino)-1,4:3,6-dianhydro-2-deoxy-D-allitol] | 12.5 | 25 | 25 | 12.5 | 6.25 | 2.00 | – | 263 | 40.8 | 250 |
| CC(CN1CCOCC1)NS(=O)(=O)c1ccc(-c2cccc3sc(N)nc23)c(-c2nnn[nH]2)c1S(N)(=O)=O (stereo not drawn) [Example 51, 4-(2-amino-1,3-benzothiazol-4-yl)-N1-(1-methyl-2-morpholin-4-ylethyl)-3-(1H-tetrazol-5-yl)benzene-1,2-disulfonamide] | 12.5 | 25 | 25 | 25 | 6.25 | 4.00 | 441 | 393 | 97 | – |
| CN(C)CCCN(C)S(=O)(=O)c1ccc(-c2cccc3sc(N)nc23)c(-c2nnn[nH]2)c1S(N)(=O)=O [Example 52, 4-(2-amino-1,3-benzothiazol-4-yl)-N1-[3-(dimethylamino)propyl]-N~1~-methyl-3-(1H-tetrazol-5-yl)benzene-1,2-disulfonamide] | 3.125 | 12.5 | 50 | 6.25 | 3.125 | 2.00 | 25300 | 5940 | 15300 | – |
| CN1CCC(NS(=O)(=O)c2ccc(-c3cccc4sc(N)nc34)c(-c3nnn[nH]3)c2S(N)(=O)=O)C1 (stereo not drawn) [Example 53, 4-(2-amino-1,3-benzothiazol-4-yl)-N1-(1-methylpyrrolidin-3-yl)-3-(1H-tetrazol-5-yl)benzene-1,2-disulfonamide] | 1.563 | 3.125 | 3.125 | 1.563 | 1.563 | 1.00 | 192 | 298 | 41.5 | – |
| CN1CCC(N(C)S(=O)(=O)c2ccc(-c3cccc4sc(N)nc34)c(-c3nnn[nH]3)c2S(N)(=O)=O)C1 (stereo not drawn) [Example 54, 4-(2-amino-1,3-benzothiazol-4-yl)-N1-methyl-N1-(1-methylpyrrolidin-3-yl)-3-(1H-tetrazol-5-yl)benzene-1,2-disulfonamide] | 3.125 | 6.25 | 6.25 | 6.25 | 3.125 | 2.00 | 3640 | 1930 | 190 | – |
| Nc1nc2c(-c3ccc(S(=O)(=O)N4CCC(N)(CO)C4)c(S(N)(=O)=O)c3-c3nnn[nH]3)cccc2s1 (stereo not drawn) [Example 55, 3-(2-amino-1,3-benzothiazol-4-yl)-6-{[3-amino-3-(hydroxymethyl)pyrrolidin-1-yl]sulfonyl}-2-(1H-tetrazol-5-yl)benzenesulfonamide] | 3.125 | 3.125 | 6.25 | 3.125 | 3.125 | 1.00 | 1460 | 860 | 510 | – |
| CCC1(NS(=O)(=O)c2ccc(-c3cccc4sc(N)nc34)c(-c3nnn[nH]3)c2S(N)(=O)=O)CCNC1 (stereo not drawn) [Example 56, 4-(2-amino-1,3-benzothiazol-4-yl)-N1-(3-ethylpyrrolidin-3-yl)-3-(1H-tetrazol-5-yl)benzene-1,2-disulfonamide] | 3.125 | 1.563 | 3.125 | 1.563 | 1.563 | 1.00 | 245 | 342 | 51.9 | – |
| CC1(NS(=O)(=O)c2ccc(-c3cccc4sc(N)nc34)c(-c3nnn[nH]3)c2S(N)(=O)=O)CCCNC1 (stereo not drawn) [Example 57, 4-(2-amino-1,3-benzothiazol-4-yl)-N1-(3-methylpiperidin-3-yl)-3-(1H-tetrazol-5-yl)benzene-1,2-disulfonamide] | 6.25 | 3.125 | 3.125 | 3.125 | 3.125 | 1.00 | 355 | 554 | 85.3 | – |
| Nc1nc2c(-c3ccc(S(=O)(=O)N[C@@H]4CNC[C@@H]4F)c(S(N)(=O)=O)c3-c3nnn[nH]3)cccc2s1 [Example 58, 4-(2-amino-1,3-benzothiazol-4-yl)-N1-[(3R,4S)-4-fluoropyrrolidin-3-yl]-3-(1H-tetrazol-5-yl)benzene-1,2-disulfonamide] | 1.563 | 1.563 | 3.125 | 1.563 | 1.563 | 1.00 | 404 | 759 | 68.6 | – |
| Nc1nc2c(-c3ccc(S(=O)(=O)N[C@H]4CNC[C@@H]4F)c(S(N)(=O)=O)c3-c3nnn[nH]3)cccc2s1 [Example 59, 4-(2-amino-1,3-benzothiazol-4-yl)-N1-[(3S,4S)-4-fluoropyrrolidin-3-yl]-3-(1H-tetrazol-5-yl)benzene-1,2-disulfonamide] | 1.563 | 1.563 | 3.125 | 1.563 | 1.563 | 1.00 | 309 | 558 | 35.7 | – |
| Nc1nc2c(-c3ccc(S(=O)(=O)N[C@H]4CCNC4)c(S(N)(=O)=O)c3-c3nnn[nH]3)cccc2s1 [Example 60, 4-(2-amino-1,3-benzothiazol-4-yl)-N1-[(3S)-pyrrolidin-3-yl]-3-(1H-tetrazol-5-yl)benzene-1,2-disulfonamide] | 1.563 | 3.125 | 3.125 | 0.7813 | 1.563 | 0.50 | 236 | 679 | 76.5 | – |
